Measured values taken from US5294611A, “Angiotensin II receptor blocking 2,3,6 substituted quinazolinones” (American Cyanamid Company, priority 1993, dated 1994).

System: Angiotensin II (AII) vasopressor response
Experiment: AII Challenge: antagonism of angiotensin II vasopressor response in conscious spontaneously hypertensive rats
Type: in vivo, rat (male okamoto-Aoki SHR)
Conditions: for Average Change: SHR n=2; for Change: single SHR
Description: Conscious Male okamoto-Aoki SHR, 16-20 weeks old, weighing approximately 330 g are purchased from Charles River Labs (Wilmington, Mass.). Conscious rats are restrained in a supine position with elastic tape. The area at the base of the tail is locally anesthetized by subcutaneous infiltration with 2% procaine. […] The cannula is secured, heparinized (1,000 I.U./ml), sealed and the wound is closed. The animals are placed in plastic restraining cages in an upright position. The cannula is attached to a Statham P23Db pressure transducer, and pulsatile blood pressure is recorded to 10-15 minutes with a Gould Brush recorder. […] Angiotensin II (human sequence, Sigma Chem. Co., St. Louis, Mo.) of 0.05 and 0.1 ug/kg i.v. is injected into all rats (predosing response). Then a test compound, vehicle or a known angiotensin II antagonist is administered i.v., i.p. or orally to each set of rats. […] The vasopressor response of angiotensin II is measured for the increase in systolic blood pressure in mmHg.

[1] = 1 mg/kg I.V., AII 0.1 mcg/kg IV, 30 min post dose
[2] = 1 mg/kg I.V., AII 0.1 mcg/kg IV, 60 min post dose
[3] = 3 mg/kg I.V., AII 0.05 mcg/kg IV, 60 min post dose
[4] = 3 mg/kg I.V., AII 0.05 mcg/kg IV, 90 min post dose
[5] = 3 mg/kg I.V., AII 0.05 mcg/kg IV, 180 min post dose
[6] = 3 mg/kg I.V., AII 0.05 mcg/kg IV, 240 min post dose
[7] = 5 mg/kg P.O., AII 0.1 mcg/kg IV, 240 min post dose
[8] = 5 mg/kg P.O., AII 0.1 mcg/kg IV, 300 min post dose

With `CCCCc1nc2ccc([C@H]3[C@@H]4C(=O)CC[C@@H]4ON3C)cc2c(=O)n1Cc1ccc(-c2ccccc2-c2nnn[nH]2)cc1` (relative stereo) [Example 48] the “Average Change” value (1 mg/kg I.V., AII 0.05 mcg/kg IV, 240 min post dose) was 32.5 mmHg, the “Average Change” value (1 mg/kg I.V., AII 0.05 mcg/kg IV, 300 min post dose) was 36 mmHg and the “Average Change” value [1] was 25 mmHg. For the same compound, the “Average Change” value [2] was 15 mmHg, the “Average Change” value (1 mg/kg I.V., AII 0.1 mcg/kg IV, 90 min post dose) was 25 mmHg and the “Average Change” value (1 mg/kg I.V., AII 0.1 mcg/kg IV, 120 min post dose) was 36 mmHg. For the same compound, the “Average Change” value (1 mg/kg I.V., AII 0.1 mcg/kg IV, 180 min post dose) was 32.5 mmHg, the “Average Change” value (1 mg/kg I.V., AII 0.1 mcg/kg IV, 240 min post dose) was 35.5 mmHg and the “Average Change” value (1 mg/kg I.V., AII 0.1 mcg/kg IV, 300 min post dose) was 36.5 mmHg. The “Average Change” value (3 mg/kg I.V., AII 0.05 mcg/kg IV, 30 min post dose) was 2.5 mmHg, the “Average Change” value [3] was 0 mmHg and the “Average Change” value [4] was 5 mmHg. The “Average Change” value (3 mg/kg I.V., AII 0.05 mcg/kg IV, 120 min post dose) was 4 mmHg, the “Average Change” value [5] was 15 mmHg and the “Average Change” value [6] was 15 mmHg. The “Average Change” value (3 mg/kg I.V., AII 0.05 mcg/kg IV, 300 min post dose) was 20 mmHg, the “Average Change” value (3 mg/kg I.V., AII 0.1 mcg/kg IV, 30 min post dose) was 2.5 mmHg and the “Average Change” value (3 mg/kg I.V., AII 0.1 mcg/kg IV, 60 min post dose) was 6 mmHg. The “Average Change” value (3 mg/kg I.V., AII 0.1 mcg/kg IV, 90 min post dose) was 10 mmHg, the “Average Change” value (3 mg/kg I.V., AII 0.1 mcg/kg IV, 120 min post dose) was 7.5 mmHg and the “Average Change” value (3 mg/kg I.V., AII 0.1 mcg/kg IV, 180 min post dose) was 22.5 mmHg. For the same compound, the “Average Change” value (3 mg/kg I.V., AII 0.1 mcg/kg IV, 240 min post dose) was 22.5 mmHg, the “Average Change” value (3 mg/kg I.V., AII 0.1 mcg/kg IV, 300 min post dose) was 27.5 mmHg and the “Average Change” value (5 mg/kg P.O., AII 0.05 mcg/kg IV, 30 min post dose) was 10 mmHg. The “Average Change” value (5 mg/kg P.O., AII 0.05 mcg/kg IV, 60 min post dose) was 10 mmHg, the “Average Change” value (5 mg/kg P.O., AII 0.05 mcg/kg IV, 90 min post dose) was 8.5 mmHg and the “Average Change” value (5 mg/kg P.O., AII 0.05 mcg/kg IV, 120 min post dose) was 4 mmHg. The “Average Change” value (5 mg/kg P.O., AII 0.05 mcg/kg IV, 180 min post dose) was 7.5 mmHg, the “Average Change” value (5 mg/kg P.O., AII 0.05 mcg/kg IV, 240 min post dose) was 2.5 mmHg and the “Average Change” value (5 mg/kg P.O., AII 0.05 mcg/kg IV, 300 min post dose) was 3 mmHg. The “Average Change” value (5 mg/kg P.O., AII 0.1 mcg/kg IV, 30 min post dose) was 16 mmHg, the “Average Change” value (5 mg/kg P.O., AII 0.1 mcg/kg IV, 60 min post dose) was 12.5 mmHg and the “Average Change” value (5 mg/kg P.O., AII 0.1 mcg/kg IV, 90 min post dose) was 7 mmHg. The “Average Change” value (5 mg/kg P.O., AII 0.1 mcg/kg IV, 120 min post dose) was 5 mmHg, the “Average Change” value (5 mg/kg P.O., AII 0.1 mcg/kg IV, 180 min post dose) was 12.5 mmHg and the “Average Change” value [7] was 10 mmHg. For the same compound, the “Average Change” value [8] was 10 mmHg, the Change (1 mg/kg I.V., AII 0.05 mcg/kg IV, 30 min post dose) was 15 mmHg and the Change (1 mg/kg I.V., AII 0.05 mcg/kg IV, 60 min post dose) was 20 mmHg. It also gave a Change [1] of 25 mmHg, a Change [2] of 15 mmHg and a Change [3] of 0 mmHg. The Change [4] was 5 mmHg, the Change [5] was 15 mmHg and the Change [6] was 15 mmHg. The Change [7] was 10 mmHg and the Change [8] was 10 mmHg.
